Data on eight compounds can be found in US11702443B2, “Therapeutic agents and methods” (Pop Test Oncology LLC, priority 2016, dated 2023).

In brackets after ≈: the same amount, converted by molar mass. Entries after “also recorded” stand apart in the source; their conditions may differ. Where two headings read alike, the source gives them in different places.

In data set [1] the test system is Human Hepatitis B Virus Subtype ayw. Put plainly: In vitro antiviral activity versus HBV ayw replication, DNA (Southern) hybridization. It counts as cell-based. The conditions noted are these: HepG2 2.2.15.
Data set [2] can be described thus: Host cytotoxicity in HBV assay. The conditions noted are these: human, HepG2 2.2.15 cells.
Data set [3] deals with Diplococcus pneumoniae = Streptococcus pneumoniae U.C. 41. The conditions noted are these: Diplococcus pneumoniae U.C. 41; cited from earlier work.
Data set [4] concerns Mycobacterium tuberculosis ATCC 9360 H37Rv. The conditions noted are these: cited from earlier work.
For data set [5], the system named is Pseudomonas aeruginosa ATCC 10145. The conditions noted are these: cited from earlier work.
The conditions of data set [6]: cited from earlier work.
Data set [7] concerns Mycobacterium tuberculosis virulent standard strain H37Rv. The data set is described as follows: Standard resazurin-resorufin assay versus M. tuberculosis H37Rv. It counts as cell-based. For orientation: The colour change of resazurin is a common sign of viable cells or microbes.
For data set [8], the system named is Klebsiella pneumoniae ATCC 10031. The conditions noted are these: cited from earlier work.
Data set [9] relates to Escherichia coli ATCC 10536. The conditions noted are these: cited from earlier work.
The test system of data set [10] is Proteus vulgaris ATCC 881. The conditions noted are these: cited from earlier work.
The subject of data set [11] is Staphylococcus aureus Tour. The conditions noted are these: cited from earlier work.
Data set [12] relates to Staphylococcus aureus Tour Rif-resistant. The conditions noted are these: cited from earlier work.
The test system of data set [13] is Staphylococcus aureus infection. The conditions noted are these: cited from earlier work.
The conditions of data set [14]: in vivo; cited from earlier work.
In data set [15] the test system is Streptococcus haemolyticus = S. pyogenes C 203. The conditions noted are these: Streptococcus haemolyticus C 203, cited from earlier work.
Data set [16] has as its system Staphylococcus aureus ATCC 6538. The conditions noted are these: cited from earlier work.
Data set [17] concerns Bacillus megaterium. The data set is described as follows: Activity versus Bacillus megaterium. The data set is classed as cell-based.
Data set [18] is described as follows: Hydrolysis in formic acid-acidified (0.05%) HPLC eluent. It counts as physicochemical. The conditions noted are these: compared with rifampicin. On the procedure: Compound stock solutions were diluted to 2 mM in DMSO and injected into an Agilent 1100 HPLC system using the following conditions for separation: Phenomenex Gemini C18 column, 3×50 mm; flow rate 0.45 ml/min; gradient 5-95% acetonitrile in water over 8 min with all solvents containing 0.05% formic acid. Detection used the following: UV detector—Agilent diode array, monitored at 214 and 254 nm; mass spectrometry detector (MSD)—Agilent MSD, electrospray ionization, positive mode.
The chromatographic separation of TPR-1 is given in FIGS. 15A to C. • There are four peaks (4.462 min, 4.951 min, 5.657 min, 6.679 min) at 214 nm and 254 nm diode array UV detection • No other significant peaks are seen • The two main peaks (4.951 min, 5.657 min) stem from the two discernible, coexisting ionic forms of the rifamycin.
[drawing 32] • In the above picture the left formula is zwitterionic, whereas the right formula is cationic. The zwitterionic form elutes at 4.951 min, since it is more polar, and the cationic form elutes at 5.657 min, since it is more lipophilic. The cationic form was integrated by IDRI as 59%. So the cationic form dominates in the formic acid-acidified (0.05%) HPLC eluent, as to be expected • The two small side peaks stem from hydrolysis of TPR-1 by the formic acid-acidified (0.05%) HPLC eluent. This is a phenomenon well-known for rifampcin (Ref. 2). […]

Data set [19] can be described thus: Chemical stability (atmospheric oxygen, hydrolysis, UV light).
Data set [20] deals with B. subtilis. Put plainly: Agar Disk Diffusion Assay with B. subtilis. It counts as cell-based, Bacillus subtilis. (In general: A growth-free zone around the sample is the usual read-out of agar diffusion tests.)
The subject of data set [21] is NF-κB. The data set is described as follows: NF-κB-luciferase reporter in mixed cultures of primary astrocytes and microglia. It counts as cell-based, mice. The conditions noted are these: 1 μM, 10 μM and 100 μM, 3 hours; then Poly I:C, LPS or TNFα for 24 h. A general note: In a reporter assay the amount or activity of a reporter protein is the signal.
The test system of data set [22] is cancer cells. Put plainly: Cytotoxicity to cancer cells. The data set is classed as cell-based.
Data set [23] can be described thus: Solubility.
The subject of data set [24] is HepG2 2.2.15. The data set is described as follows: Host cytotoxicity in HBV assay. The conditions noted are these: HepG2 2.2.15; rows of RT-qPCR assay.
Data set [25] relates to Human Hepatitis B Virus Subtype ayw. The data set is described as follows: In vitro antiviral activity versus HBV ayw replication, RT-qPCR. The data set is classed as cell-based. The conditions noted are these: HepG2 2.2.15.
Where [26] appears, read: strain H37Rv, read-out: Minimal inhibitory concentration 99% (MIC99) in nmol/Liter.
The mark [27] stands for this setting: strain H37Rv, read-out: Minimal inhibitory concentration 99% (MIC99) in μg/ml.

Consider `Nc1ccn([C@@H]2CS[C@H](CO)O2)c(=O)n1` [Lamivudine], for which, in data set [1], a half-maximal response (EC50) required 0.026 µM and it took 0.116 µM to reach the 90% level (EC90). Besides, the midpoint of cytotoxicity in data set [2], the CC50, lay at 2190 µM.
For `CO/N=C/c1c2c(O)c3c(O)c(C)c4c(c3c1O)C(=O)[C@@](C)(O/C=C/[C@H](OC)[C@@H](C)[C@@H](OC(C)=O)[C@H](C)[C@H](O)[C@H](C)[C@@H](O)[C@@H](C)/C=C/C=C(/C)C(=O)N2)O4` [MR-1, (2S,12Z,14E,16S,17S,18R,19R,20R,21S,22R,23S,24E)-21-(acetyloxy)-5,6,9,17,19-pentahydroxy-23-methoxy-8-[(E)-(methoxyimino)methyl]-2,4,12,16,18,20,22-heptamethyl-2,7-(epoxypentadeca[1,11,13]trienimino)naphtho[2,1-b]furan-1,11(2H)-dione], the “MIC (μg/ml) reference 2 (1974)” value in [3] is 0.01 µg/mL (≈ 0.0132 µM); in data set [4], 0.05 µg/mL (≈ 0.0662 µM); in data set [5], 10 µg/mL (≈ 13.2 µM); in data set [8], 10 µg/mL (≈ 13.2 µM); in data set [9] it was 5 µg/mL (≈ 6.62 µM); in [10] it was 2 µg/mL (≈ 2.65 µM). The “MIC (μg/ml) reference 2 (1974)” value is 0.002 µg/mL (≈ 0.00265 µM) in [11], >100 µg/mL in data set [12] and 0.01 µg/mL (≈ 0.0132 µM) in data set [15]. In addition, the “MIC (μg/ml) reference 1 (1966)” value in data set [4] is 0.1 µg/mL (≈ 0.132 µM); in data set [5], 10 µg/mL (≈ 13.2 µM); in data set [8], 10 µg/mL (≈ 13.2 µM); in [9] it was 5 µg/mL (≈ 6.62 µM); in data set [10], 2 µg/mL (≈ 2.65 µM); in [15] it was 0.01 µg/mL (≈ 0.0132 µM). For the same compound, the “MIC (μg/ml) reference 1 (1966)” value in [16] is 0.0005 µg/mL (≈ 0.000662 µM). Moreover, the “In vivo lethal dose 50% (LD50) (mg/kg) intravenous in mice” value in data set [6] is on record as 152 mg/kg. In addition, the MIC99 in data set [7] (setting [26]) is 106 nmol/L; in data set [7] (setting [27]) it was 0.08 µg/mL. Besides, in data set [13], the “In vivo effective dose 50% (ED50) (mg/kg) in curing Staphylococcus aureus infection in mice, per os” value was 0.53 mg/kg. Moreover, the “In vivo effective dose 50% (ED50) (mg/kg) in curing Staphylococcus aureus infection in mice, subcutaneous” value in [13] is recorded as 0.87 mg/kg. The Oral bioavailability result in [14] was “more orally bioavailable than OR-1”.
`CO[C@H]1/C=C/O[C@@]2(C)Oc3c(C)c(O)c4c(O)c(c(/C=N/O)c(O)c4c3C2=O)NC(=O)/C(C)=C\C=C\[C@H](C)[C@H](O)[C@@H](C)[C@@H](O)[C@@H](C)[C@H](OC(C)=O)[C@@H]1C` [OR-1, 3-Formylrifamycin SV (E)-oxime 1.2 hydrate]: the “MIC (μg/ml) reference 2 (1974)” value was 0.01 µg/mL in data set [3]; 5 µg/mL in data set [4]; 10 µg/mL in data set [5]; 20 µg/mL in [8]; 5 µg/mL in [9]; 10 µg/mL in data set [10]. Besides, the “MIC (μg/ml) reference 2 (1974)” value was 0.02 µg/mL in data set [11], >100 µg/mL in data set [12] and 0.01 µg/mL in data set [15]. For the same compound, the “MIC (μg/ml) reference 1 (1966)” value in data set [4] is 5 µg/mL; in [5], 10 µg/mL; in data set [8], 20 µg/mL; in [9] it was 5 µg/mL; in data set [10], 10 µg/mL; in data set [15], 0.01 µg/mL. Besides, the “MIC (μg/ml) reference 1 (1966)” value in [16] was 0.02 µg/mL. In addition, in data set [6], the “In vivo lethal dose 50% (LD50) (mg/kg) intravenous in mice” value was 690 mg/kg. Also, the MIC99 amounted to 787 nmol/L in data set [7] (setting [26]) and 0.6 µg/mL in [7] (setting [27]). For the same compound, the “In vivo effective dose 50% (ED50) (mg/kg) in curing Staphylococcus aureus infection in mice, per os” value in data set [13] is 5.66 mg/kg. For the same compound, the “In vivo effective dose 50% (ED50) (mg/kg) in curing Staphylococcus aureus infection in mice, subcutaneous” value in data set [13] is on record as 2.46 mg/kg. Moreover, the Oral bioavailability entry in data set [14] is recorded as “orally bioavailable”.
Turning to `CO[C@H]1/C=C/O[C@@]2(C)Oc3c(C)c(O)c4c(O)c(c(/C=N/N5CCN(C)CC5)c(O)c4c3C2=O)NC(=O)/C(C)=C\C=C\[C@H](C)[C@H](O)[C@@H](C)[C@@H](O)[C@@H](C)[C@H](OC(C)=O)[C@@H]1C` [Rifampicin, reference compound], the MIC99 in [7] (H37RV, read-out: Minimal inhibitory concentration 99% (MIC99) in nmol/Liter (nM)) amounted to 72.7 nmol/L; in data set [7] (H37RV, read-out: Minimal inhibitory concentration 99% (MIC99) in μg/ml) it was 0.06 µg/mL.
Turning to `CO[C@H]1/C=C/O[C@@]2(C)Oc3c(C)c(O)c4c(O)c(c(/C=N/N5CC[N+](C)(CC#C[Si](C)(C)C)CC5)c([O-])c4c3C2=O)NC(=O)/C(C)=C\C=C\[C@H](C)[C@H](O)[C@@H](C)[C@@H](O)[C@@H](C)[C@H](OC(C)=O)[C@@H]1C` [TPR-1, Nω[3-(Trimethylsilyl)prop-2-yn-1-yl]rifampicinium-4-olate×¾ HBr×H2O], in data set [17], the “Activity versus Bacillus megaterium” value is reported as “highly active”. In addition, the MIC99 in [7] (setting [26]) is 19.8 to 39.5 nmol/L; in data set [7] (setting [27]) it was 0.02 to 0.04 µg/mL. Also, the “Susceptibility to hydrolysis of the hydrazone imine group in acidic media” value in data set [18] is “more susceptible to this hydrolysis than rifampicin”. In [19], the “Oxidation by atmospheric oxygen” value is reported as “not oxidized by atmospheric oxygen; also recorded: resistant to oxidation”. In data set [19], the “Stability towards hydrolysis and UV light” value was “enhanced stability towards hydrolysis and UV light”. The “Activity versus Bacillus subtilis” value in data set [20] is “highly active”. For the same compound, the zone of inhibition at 1 µg/disc in [20] (Bacillus subtilis, paper disc with 1 μg, overnight at 30° C., read-out: Clearance zones (in mm)) stood at 18.3 mm. In addition, the zone of inhibition at 10 µg/disc in data set [20] (Bacillus subtilis, paper disc with 10 μg, overnight at 30° C., read-out: Clearance zones (in mm)) turned out to be 21.1 mm. In addition, the “Luciferase activity (suppression of inflammation)” value (“Luciferase activity” for short) in data set [21] is recorded as “dose dependent decrease of luciferase activity”.
In the case of “(11,17)-17-Hydroperoxy-11-[3,4-(methylenedioxy)phenyl]-17-(1-propyn-1-yl)estra-4,9-dien-3-one-(11,17)-17-hydroxy-11-[3,4-(methylenedioxy)phenyl]-17-(1-propyn-1-yl)estra-4,9-dien-3-one (1:1) [PT157]”, the “Luciferase activity” value in data set [21] is reported as “dose dependent decrease of luciferase activity”.
Consider “Tetrakis{3-[(tricyclo[3.3.1.1^3,7]decan-1-ammonio)methyl]benzyl}ammonium pentachloride [PT162]”, for which the “Cytotoxicity to cancer cells” value in data set [22] was “extremely cytotoxic to cancer cells”.
For the compound “⅓(11β,17β)-17-Hydroxy-11-[3,4-(methylenedioxy)phenyl]-17-(1-propyn-1-yl)estra-4,9-dien-3-one (PT150)×(2EZ)-2-{(11β,17β)-17-hydroxy-11-[3,4-(methylenedioxy)phenyl]-17-(1-propyn-1-yl)estra-4,9-dien-3-ylidene}hydrazinecarbothioamide [71.8% (E), 28.2% (Z)]×⅓ H2O× 7/9 acetone [PT155]”, the “Solubility in organic solvents” value in data set [23] (ethanol, acetone, DMSO, DMF, ethyl acetate, and chloroform) is recorded as “very soluble”. The Solubility in water result in [23] (water) is on record as “not soluble in water initially”. Also, the “Luciferase activity” value in data set [21] is “dose dependent decrease of luciferase activity”. The CC50 (commonly the concentration that lowers cell viability or growth by half) in data set [24] is > 100 µM. In data set [25], the EC50 (in general, the concentration that produces a half-maximal response) worked out at 10.8 µM and the EC90 (in general, the concentration needed for an effect of 90%) is > 100 µM.
